Results from patent publication US10407467B2, “Polymyxin derivatives and their use in combination therapy together with different antibiotics” (priority 2013, dated 2019).

Columns and labels:
Acinetobacter baumannii [1] = assay: MIC, compound in combination with a second agent (broth microdilution); format: cell-based
How it was run: (§1)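 MIC values express combined concentration of test compound plus partner agent such as rifampicin, mixed at equal mass (1:1 w/w, salt-form weight). Direct colony suspensions at 0.5 McFarland, up to four strains per species, tested in duplicate; >2-fold disagreement invalid, otherwise lower value or mode of repeats reported.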

Escherichia coli [2] = assay: as above; format: cell-based
How it was run: as §1

Klebsiella pneumoniae [3] = assay: as above; format: cell-based
How it was run: as §1

Pseudomonas aeruginosa [4] = assay: as above; format: cell-based
How it was run: as §1

Acinetobacter baumannii [5] = assay: MIC, sole activity (no second agent); format: cell-based; conditions: Second Agent none (Table 7B, by row order)
How it was run: (§2)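 Up to four strains per species were tested in cation-adjusted Mueller-Hinton broth, with inoculum made by direct colony suspension from 18-24 hour Mueller-Hinton agar plates, adjusted to 0.5 McFarland. Duplicates differing by under 2-fold gave the lower value; greater spread voided the run. Values are relative to Polymyxin B.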

Escherichia coli [6] = assay: MIC, sole activity (no second agent); format: cell-based
How it was run: as §2

Klebsiella pneumoniae [7] = assay: MIC, sole activity (no second agent); format: cell-based
How it was run: as §2

Pseudomonas aeruginosa [8] = assay: MIC, sole activity (no second agent); format: cell-based
How it was run: as §2

HK-2 cell line = assay: In vitro renal cell toxicity assay (resazurin reduction); format: cell-based, human; conditions: HK-2 cells, 24 h, resazurin reduction; mean values of up to 6 independent studies
[9] = test system: Klebsiella pneumoniae ATCC10031; conditions: Total daily dosage 10 mg/Kg (sulfate salt), subcutaneous BID
Description: At 1 h, the CFU count was determined from 5 mice and the remaining mice (five per group) were treated with a subcutaneous injection of the drug at +1 and 6 hr post-infection.
Twenty-four hours after infection, the mice were euthanized humanely. The muscle of the right thigh of each animal was harvested, homogenized, serially diluted and plated on Brain Heart Infusion agar+0.5% charcoal (w/v) for CFU determination. Decrease of the total CFU of right thigh as compared to control counts at 24 h post-infection was determined for each dose group.

[10] = 1:1 combination with Ciprofloxacin (by row order), total drug concentration
[11] = 1:1 combination with Ciprofloxacin, total drug concentration
[12] = 1:1 combination with Tigecycline, total drug concentration
[13] = 1:1 combination with Vancomycin, total drug concentration
[14] = Ratio of Compound to Rifampicin 1:1, total drug concentration
[15] = Ratio of Compound to Rifampicin 1:3, total drug concentration
[16] = Ratio of Compound to Rifampicin 3:1, total drug concentration
[17] = Second Agent none (Table 7B, by row order)

Colistin [reference compound]
2 microgram/mL: MIC K. pneumoniae CCUG 59626 (Klebsiella pneumoniae [3]; [13]) | MIC K. pneumoniae NCTC 13442 (Klebsiella pneumoniae [7]; Second Agent none (Table 7A))
2.60 log10 CFU: Mean log10 CFU reduction vs. control [9]
0.5 microgram/mL: MIC K. pneumoniae CCUG 59626 (Klebsiella pneumoniae [7]; Second Agent none (Table 7A))
4 microgram/mL: MIC E. coli NCTC9001 (Escherichia coli [2]; [13])
32 micrograms/mL: MIC K. pneumoniae CCUG 59348 (Klebsiella pneumoniae [3]; [11]) | MIC K. pneumoniae CCUG 59348 (Klebsiella pneumoniae [7]; K. pneumoniae CCUG 59348, second agent none) | MIC K. pneumoniae CCUG 59348 (Klebsiella pneumoniae [7]; Second Agent none (Table 7B)) | MIC K. pneumoniae CCUG 59348 (Klebsiella pneumoniae [7]; Second Agent none (Table 7C))
>32 microgram/mL: MIC K. pneumoniae CCUG 59348 (Klebsiella pneumoniae [3]; [13])
1 microgram/mL: MIC E. coli NCTC9001 (Escherichia coli [6]; Second Agent none (Table 7A))
4 micrograms/mL: MIC E. coli NCTC9001 (Escherichia coli [2]; [12]) | MIC K. pneumoniae NCTC 13442 (Klebsiella pneumoniae [3]; [12]) | MIC K. pneumoniae ATCC BAA-1706 (Klebsiella pneumoniae [3]; K. pneumoniae ATCC BAA-1706, 1:1 combination with Meropenem, total drug concentration) | MIC K. pneumoniae NCTC 13442 (Klebsiella pneumoniae [3]; K. pneumoniae NCTC 13442, 1:1 combination with Meropenem, total drug concentration) | MIC K. pneumoniae ATCC-BAA-2146 (Klebsiella pneumoniae [3]; [15]) | MIC K. pneumoniae CCUG-59348 (Klebsiella pneumoniae [3]; [15])
≤0.06 micrograms/mL: MIC E. coli ATCC25922 (Escherichia coli [2]; [11]) | MIC E. coli NCTC9001 (Escherichia coli [2]; [11]) | MIC K. pneumoniae ATCC 4352 (Klebsiella pneumoniae [3]; [10])
8 microgram/mL: MIC K. pneumoniae NCTC 13442 (Klebsiella pneumoniae [3]; [13])
2 micrograms/mL: MIC K. pneumoniae CCUG-59348 (Klebsiella pneumoniae [3]; [14]) | MIC K. pneumoniae NCTC 13438 (Klebsiella pneumoniae [3]; [14]) | MIC K. pneumoniae NCTC 13438 (Klebsiella pneumoniae [3]; [15]) | MIC P. aeruginosa ATCC-47 (Pseudomonas aeruginosa [4]; 1:1 (wt:wt) combination with Rifampicin, MIC = total drug concentration, strain ATCC-47) | MIC E. coli NCTC9001 (Escherichia coli [6]; Second Agent none (Table 7B)) | MIC K. pneumoniae ATCC BAA-1706 (Klebsiella pneumoniae [7]; K. pneumoniae ATCC BAA-1706, second agent none) | MIC K. pneumoniae NCTC 13442 (Klebsiella pneumoniae [7]; K. pneumoniae NCTC 13442, second agent none) | MIC K. pneumoniae NCTC 13442 (Klebsiella pneumoniae [7]; Second Agent none (Table 7B)) | MIC K. pneumoniae ATCC BAA-1706 (Klebsiella pneumoniae [7]; [17]) | MIC K. pneumoniae NCTC 13442 (Klebsiella pneumoniae [7]; Second Agent none (Table 7C))
0.125 micrograms/mL: MIC A. baumannii NCTC 13423 (Acinetobacter baumannii [1]; 1:1 (wt:wt) combination with Rifampicin, MIC = total drug concentration, strain NCTC 13423) | MIC P. aeruginosa ATCC 27853 (Pseudomonas aeruginosa [4]; [10])
28 µg/mL: IC50 HK-2 cells (HK-2 cell line)
>32 micrograms/mL: MIC K. pneumoniae CCUG 59348 (Klebsiella pneumoniae [3]; [12]) | MIC K. pneumoniae CCUG 59348 (Klebsiella pneumoniae [3]; K. pneumoniae CCUG 59348, 1:1 combination with Meropenem, total drug concentration)
1 micrograms/mL: MIC E. coli CCUG 59342 (Escherichia coli [2]; [11]) | MIC K. pneumoniae ATCC-BAA-2146 (Klebsiella pneumoniae [3]; 1:1 (wt:wt) combination with Rifampicin, MIC = total drug concentration, strain ATCC-BAA-2146) | MIC K. pneumoniae CCUG-59348 (Klebsiella pneumoniae [3]; 1:1 (wt:wt) combination with Rifampicin, MIC = total drug concentration, strain CCUG-59348) | MIC K. pneumoniae ATCC BAA-1706 (Klebsiella pneumoniae [3]; [10]) | MIC K. pneumoniae NCTC 13442 (Klebsiella pneumoniae [3]; [11]) | MIC K. pneumoniae ATCC-BAA-2146 (Klebsiella pneumoniae [3]; [14]) | MIC K. pneumoniae ATCC-BAA-2146 (Klebsiella pneumoniae [3]; [16]) | MIC K. pneumoniae CCUG-59348 (Klebsiella pneumoniae [3]; [16]) | MIC K. pneumoniae NCTC 13438 (Klebsiella pneumoniae [3]; [16]) | MIC P. aeruginosa ATCC CRM-9027 (Pseudomonas aeruginosa [4]; 1:1 (wt:wt) combination with Rifampicin, MIC = total drug concentration, strain ATCC CRM-9027) | MIC P. aeruginosa CCUG 59626 (Pseudomonas aeruginosa [4]; [10]) | MIC P. aeruginosa CCUG 59626 (Pseudomonas aeruginosa [4]; [12]) | MIC P. aeruginosa CCUG 59626 (Pseudomonas aeruginosa [4]; P. aeruginosa CCUG 59626, 1:1 combination with Meropenem, total drug concentration) | MIC E. coli NCTC9001 (Escherichia coli [6]; E. coli NCTC9001, second agent none) | MIC E. coli ATCC25922 (Escherichia coli [6]; Second Agent none (Table 7B)) | MIC E. coli NCTC9001 (Escherichia coli [6]; Second Agent none (Table 7C))
0.25 micrograms/mL: MIC A. baumannii ATCC BAA-747 (Acinetobacter baumannii [1]; 1:1 (wt:wt) combination with Rifampicin, MIC = total drug concentration, strain ATCC BAA-747) | MIC A. baumannii CCUG57249 (Acinetobacter baumannii [1]; 1:1 (wt:wt) combination with Rifampicin, MIC = total drug concentration, strain CCUG57249) | MIC A. baumannii NCTC 13424 (Acinetobacter baumannii [1]; 1:1 (wt:wt) combination with Rifampicin, MIC = total drug concentration, strain NCTC 13424) | MIC E. coli ATCC25922 (Escherichia coli [2]; 1:1 (wt:wt) combination with Rifampicin, MIC = total drug concentration, strain ATCC25922) | MIC E. coli NCTC9001 (Escherichia coli [2]; 1:1 (wt:wt) combination with Rifampicin, MIC = total drug concentration, strain NCTC9001) | MIC E. coli NCTC9001 (Escherichia coli [2]; E. coli NCTC9001, 1:1 combination with Meropenem, total drug concentration) | MIC P. aeruginosa ATCC 27853 (Pseudomonas aeruginosa [4]; 1:1 (wt:wt) combination with Rifampicin, MIC = total drug concentration, strain ATCC 27853) | MIC P. aeruginosa ATCC 27853 (Pseudomonas aeruginosa [8]; [17])
0.5 micrograms/mL: MIC A. baumannii NCTC 13424 (Acinetobacter baumannii [1]; [10]) | MIC K. pneumoniae ATCC 4352 (Klebsiella pneumoniae [3]; 1:1 (wt:wt) combination with Rifampicin, MIC = total drug concentration, strain ATCC 4352) | MIC K. pneumoniae NCTC 13438 (Klebsiella pneumoniae [3]; 1:1 (wt:wt) combination with Rifampicin, MIC = total drug concentration, strain NCTC 13438) | MIC P. aeruginosa CCUG 59626 (Pseudomonas aeruginosa [4]; 1:1 (wt:wt) combination with Rifampicin, MIC = total drug concentration, strain CCUG 59626) | MIC A. baumannii NCTC 13424 (Acinetobacter baumannii [5]) | MIC E. coli CCUG 59342 (Escherichia coli [6]; Second Agent none (Table 7B)) | MIC K. pneumoniae ATCC 4352 (Klebsiella pneumoniae [7]; [17]) | MIC P. aeruginosa CCUG 59626 (Pseudomonas aeruginosa [8]; P. aeruginosa CCUG 59626, second agent none) | MIC P. aeruginosa CCUG 59626 (Pseudomonas aeruginosa [8]; [17]) | MIC P. aeruginosa CCUG 59626 (Pseudomonas aeruginosa [8]; Second Agent none (Table 7C))
32 microgram/mL: MIC K. pneumoniae CCUG 59348 (Klebsiella pneumoniae [7]; Second Agent none (Table 7A))
